Reference: patent US20090181948A1, “DIAMINE DERIVATIVE” (KYOWA HAKKO KOGYO CO., LTD., priority 2005, published 2009)

Tests used:
histamine H3 receptor [1] = target: T1, histamine H3 receptor (Rattus norvegicus, UniProt Q9QYN8); assay: Inhibitory effect on histamine release suppressive action of histamine H3 receptor agonist (Nα-methylhistamine) in rat forebrain synaptosomes; assay type: biochemical; conditions: 1 μmol/L test compound and 1 μmol/L Nα-methylhistamine, potassium 30 mmol/L stimulation, read-out: Inhibition ratio of the [3H]-histamine release suppressive action of Nα-methylhistamine
T1 construct: from tissue; host or cells: rat striatum (Sprague-Dawley, male, 6 weeks), membrane homogenate
Experimental: To the forebrains of Sprague-Dawley male rats (6 to 8 weeks of age), a 30-fold volume of a 0.32 mol/L aqueous sucrose solution was added and the forebrains were homogenized. The resulting homogenate was centrifuged (1,000×g, 4° C., 10 min), and to the obtained supernatant, an equivalent volume of Krebs-Ringer solution [120 mmol/L sodium chloride, 0.8 mmol/L potassium chloride, 2.6 mmol/L calcium chloride, 0.67 mmol/L magnesium sulfate, 1.2 mmol/L potassium dihydrogen phosphate, 27.5 mmol/L sodium bicarbonate, 10 mmol/L glucose (pH 7.3)] was added, and the resulting mixture was centrifuged (10,000×g, 4° C., 15 min). To the obtained precipitate, a 15-fold volume of Krebs-Ringer solution was added to suspend the precipitate. Then, the concentration of protein in the resulting tissue homogenate (synaptosomes) was measured and used for a test.
To the synaptosomes (300 μg in terms of protein amount) prepared by the above-described method, a [^3H]-histidine solution [final concentration: […] (740 kBq)/mL]: 6 μl of a 37 MBq/mL (specific activity: […]) solution] was added, and the total volume was adjusted to 300 μL with Krebs-Ringer solution. Then, the resulting mixture was incubated at 37° C. for 30 minutes and centrifuged (10,000×g, 25° C., 3 min). To the resulting precipitate (synaptosomes), 300 μL of Krebs-Ringer solution was added, and the mixture was incubated at 37° C. for 5 minutes and centrifuged (10,000×g, 25° C., 3 min). This procedure was repeated 5 times, whereby washing of synaptosomes was carried out. The resulting synaptosomes were suspended in 100 μL of Krebs-Ringer solution, and the resulting suspension was used for the following procedure.
A test compound and N^α-methylhistamine were separately dissolved in Krebs-Ringer solution to give a concentration of 20 μmol/L (the resulting mixtures were referred to as a test compound solution and a N^α-methylhistamine solution, respectively). To 100 μL of the above-described suspended synaptosomes (300 μg in terms of protein amount), 140 μL of Krebs-Ringer solution was added. Then, 30 μL of the test compound solution and 30 μL of the N^α-methylhistamine solution were added thereto, and the resulting mixture was incubated at 37° C. for 2 minutes. Then, an equivalent volume of a stimulating solution [64 mmol/L sodium chloride, 56.8 mmol/L potassium chloride, 2.6 mmol/L calcium chloride, 0.67 mmol/L magnesium sulfate, 1.2 mmol/L potassium dihydrogen phosphate, 27.5 mmol/L sodium bicarbonate, 10 mmol/L glucose (pH 7.3)] (final potassium concentration: 30 mmol/L) was added, and the resulting mixture was incubated at 37° C. for 2 minutes to release [^3H]-histamine. The reaction mixture was centrifuged (10,000×g, 25° C., 3 min), and the obtained supernatant was passed through Amberlite CG-50 column (250 μL), and the non-adsorbed fractions were discarded. Then, 2 mL of 50 mmol/L [[…]]/hydrochloric acid (HCl) (pH 7.5) (Tris) was passed through the column 3 times, and 2 mL of distilled water, and 1.5 mL of a 0.2 mol/L aqueous sodium hydroxide solution were passed through the column in this order, and the eluted fractions were discarded. Then, 2 mL of a 0.2 mol/L aqueous sodium hydroxide solution was passed through the column, and the eluted fraction was recovered in a scintillation vial. Then, 8 mL of Ultimagold (Perkin Elmer) was added to the recovered eluted solution, and the radioactivity ([^3H]-histamine) was measured using a liquid scintillation counter. The inhibitory action of the test compound on the histamine release suppressive action of N^α-methylhistamine was evaluated by obtaining the inhibition ratio to the histamine release suppressive action in the presence of 1 μmol/L No-methylhistamine and 1 μmol/L of the test compound. The inhibition ratio of the [^3H]-histamine release suppressive action was calculated using the following Equation (2). […]

histamine H3 receptor [2] = target: T1, histamine H3 receptor; assay: Histamine H3 receptor binding assay ([3H]-Nα-methylhistamine binding to rat striatum homogenate); conditions: 1 μmol/L test compound; [3H]-Nα-methylhistamine 1 nmol/L; striata of Sprague-Dawley male rats, 25° C., 1 hour; read-out: Inhibition ratio of [3H]-Nα-methylhistamine binding
Procedure, shortened: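 Rat striatum membranes (20 μg protein) incubated with [3H]-Nα-methylhistamine 1 nmol/L in 50 mmol/L Tris/HCl pH 7.4, 5 mmol/L EDTA, 1 hour at 25° C; bound ligand by filtration and scintillation counting. Nonspecific binding defined with 10 μmol/L thioperamide; % inhibition reported at 1 μmol/L compound.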

T1 sequence (Q9QYN8 whole entry): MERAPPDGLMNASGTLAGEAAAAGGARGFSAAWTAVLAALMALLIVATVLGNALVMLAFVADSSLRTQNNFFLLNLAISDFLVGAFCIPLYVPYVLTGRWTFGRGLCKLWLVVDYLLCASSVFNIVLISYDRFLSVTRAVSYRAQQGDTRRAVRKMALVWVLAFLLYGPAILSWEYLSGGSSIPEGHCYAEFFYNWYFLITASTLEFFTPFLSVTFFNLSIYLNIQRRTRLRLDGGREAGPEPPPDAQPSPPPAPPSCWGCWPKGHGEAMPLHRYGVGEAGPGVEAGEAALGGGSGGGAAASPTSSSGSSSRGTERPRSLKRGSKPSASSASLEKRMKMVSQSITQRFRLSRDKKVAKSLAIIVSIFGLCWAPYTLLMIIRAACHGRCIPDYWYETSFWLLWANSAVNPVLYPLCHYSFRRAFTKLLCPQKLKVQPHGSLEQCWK

| inhibition at 1 µM (histamine H3 receptor [1]) | melting point | inhibition at 1 µM (histamine H3 receptor [2]) | SMILES |
| --- | --- | --- | --- |
| ≥ 70% | 106 to 110 °C | ≥ 80% | CC1CCCN1CCCN1CCN(CCCN2CCCC2C)C1=CS(=O)(=O)CC#N (stereo not drawn) [Compound 137, {1,3-Bis[3-(2-methylpyrrolidin-1-yl)propyl]imidazolidin-2-ylidene}methanesulfonylacetonitrile] |
| ≥ 70% | 96 to 97 °C | ≥ 80% | C[C@@H]1CCCN1CCCN1C(=C(C#N)C#N)N(CCCN2CCC[C@H]2C)c2ccccc21 [Compound 205, {1,3-Bis[3-((R)-2-methylpyrrolidin-1-yl)propyl]benzimidazolidin-2-ylidene}malononitrile] |
